From patent US7160888B2, “[1,8]naphthyridin-2-ones and related compounds for the treatment of schizophrenia” (Warner Lambert Company LLC, priority 2003, dated 2007) come the findings set out here.

SMILES strings stand for the structures.

One data set deals with D2 receptor (Homo sapiens, UniProt P14416). Kind of data set: [3H]Thymidine uptake assay for D2 intrinsic activity. The data set is classed as cell-based. Conditions: test compound 1 μM, 1 μM Quinpirole = 100% intrinsic activity.
Chain of D2 receptor (P14416 whole entry): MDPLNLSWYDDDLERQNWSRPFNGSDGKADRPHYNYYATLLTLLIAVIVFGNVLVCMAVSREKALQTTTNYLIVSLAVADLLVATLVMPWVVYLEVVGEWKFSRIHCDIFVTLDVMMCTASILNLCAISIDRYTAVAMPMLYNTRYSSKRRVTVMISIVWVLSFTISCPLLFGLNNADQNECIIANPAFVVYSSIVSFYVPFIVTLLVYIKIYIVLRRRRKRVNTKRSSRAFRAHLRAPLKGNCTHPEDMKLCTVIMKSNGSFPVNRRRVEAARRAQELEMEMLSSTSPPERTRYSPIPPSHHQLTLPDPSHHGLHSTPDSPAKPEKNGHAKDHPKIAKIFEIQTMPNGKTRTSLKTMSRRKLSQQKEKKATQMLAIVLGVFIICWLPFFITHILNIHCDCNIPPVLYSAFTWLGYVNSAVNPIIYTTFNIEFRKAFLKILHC

Regarding `CC(=O)c1cccc(N2CCN(CCCCOc3ccc4c(n3)NC(=O)CC4)CC2)c1Cl` [Example A32, 7-{4-[4-(3-Acetyl-2-chloro-phenyl)-piperazin-1-yl]-butoxy}-3,4-dihydro-1H-[1,8]naphthyridin-2-one], the melting point (in general, the temperature, or range, at which the solid turns liquid) was 138 to 139 °C. For the same molecule, the Emax (as a rule, the maximal effect, on the per cent scale that the assay sets) at 1 µM at D2 receptor (Table 1) worked out at 7%.
In the case of `CCOc1cccc(N2CCN(CCCCOc3ccc4c(n3)NC(=O)CC4)CC2)c1Cl` [Example A21, 7-{4-[4-(2-Chloro-3-ethoxy-phenyl)-piperazin-1-yl]-butoxy}-3,4-dihydro-1H-[1,8]naphthyridin-2-one], the melting point was 110 to 112 °C.
`CC(=O)c1c(Cl)cccc1N1CCN(CCCCOc2ccc3c(n2)NC(=O)CC3)CC1` [Example A28, 7-{4-[4-(2-Acetyl-3-chloro-phenyl)-piperazin-1-yl]-butoxy}-3,4-dihydro-1H-[1,8]naphthyridin-2-one] had a melting point of 115 °C. At D2 receptor (Table 1), this molecule yielded an Emax at 1 µM of 2%.
Turning to `O=C1CCCc2c1cccc2N1CCN(CCCCOc2ccc3ccc(=O)[nH]c3n2)CC1` [Example B42, 7-{4-[4-(5-Oxo-5,6,7,8-tetrahydro-naphthalen-1-yl)-piperazin-1-yl]-butoxy}-1H-[1,8]naphthyridin-2-one], the melting point was 158 to 160 °C. At D2 receptor (Table 1), this molecule yielded an Emax at 1 µM of 37%.
On to `O=C1NCc2ccc(OCCCCN3CCN(c4cccc5ccccc45)CC3)nc2N1` [Example F2, 7-[4-(4-Naphthalen-1-yl-piperazin-1-yl)-butoxy]-3,4-dihydro-1H-pyrido[2,3-d]pyrimidin-2-one], for which the melting point is 136 to 138 °C. The same molecule had an Emax at 1 µM on D2 receptor (Table 1) of 30%.
In the case of `Cc1cc2c(nc1OCCCCN1CCN(c3cccc(Cl)c3Cl)CC1)NC(=O)CC2` [Example E1, 7-{4-[4-(2,3-Dichloro-phenyl)-piperazin-1-yl]-butoxy}-6-methyl-3,4-dihydro-1H-[1,8]naphthyridin-2-one], the melting point lay in the range of 138 to 139 °C. Moreover, the Emax at 1 µM at D2 receptor (Table 1) turned out to be 32%.
For `O=C1NCc2ccc(OCCCCN3CCN(c4cccc(Cl)c4Cl)CC3)nc2N1` [Example F1, 7-{4-[4-(2,3-Dichloro-phenyl)-piperazin-1-yl]-butoxy}-3,4-dihydro-1H-pyrido[2,3-d]pyrimidin-2-one], the melting point was in the range of 166 to 167 °C. The same molecule returned an Emax at 1 µM on D2 receptor (Table 1) of 8%.
For `Cc1c(C)c2ccc(CCCCCN3CCN(c4cccc(Cl)c4Cl)CC3)nc2[nH]c1=O` [Example D8, 7-{5-[4-(2,3-Dichloro-phenyl)-piperazin-1-yl]-pentyl}-3,4-dimethyl-1H-[1,8]naphthyridin-2-one], in that order: 202 to 203 °C and 8%.
In the case of `O=c1ccc2ccc(CCCCCN3CCN(c4cccc(Cl)c4Cl)CC3)nc2[nH]1` [Example C20, 7-{5-[4-(2,3-Dichloro-phenyl)-piperazin-1-yl]-pentyl}-1H-[1,8]naphthyridin-2-one], the melting point was in the range of 176 to 178 °C.
The molecule `CC(=O)Nc1ccc2cccc(N3CCN(CCCCOc4ccc5c(n4)NC(=O)CC5)CC3)c2c1` [Example A84, N-(8-{4-[4-(7-Oxo-5,6,7,8-tetrahydro-[1,8]naphthyridin-2-yloxy)-butyl]-piperazin-1-yl}-naphthalen-2-yl)-acetamide] registered an Emax at 1 µM on D2 receptor (Table 1) of 11%.
`CN1C(=O)CCc2cccc(N3CCN(CCCCOc4ccc5ccc(=O)[nH]c5n4)CC3)c21` [Example B38′, 7-{4-[4-(1-Methyl-2-oxo-1,2,3,4-tetrahydro-quinolin-8-yl)-piperazin-1-yl]-butoxy}-1H-[1,8]naphthyridin-2-one]: the Emax at 1 µM at D2 receptor (Table 2) was 46%.
Molecule `O=C1CCc2ccc(OCCCCN3CCN(c4cccc(C5CC5)n4)CC3)nc2N1` [Example A46, 7-{4-[4-(6-Cyclopropyl-pyridin-2-yl)-piperazin-1-yl]-butoxy}-3,4-dihydro-1H-[1,8]naphthyridin-2-one] gave a maximal effect (Emax) at 1 µM on D2 receptor (Table 1) of 41%.
For the molecule `O=c1ccc2ccc(OCCCCN3CCN(c4cccc5c4CCCO5)CC3)nc2[nH]1` [Example B10′, 7-[4-(4-Chroman-5-yl-piperazin-1-yl)-butoxy]-1H-[1,8]naphthyridin-2-one], the Emax at 1 µM on D2 receptor (Table 2) was 22%.
`CC1(C)CC(=O)Nc2nc(OCCCCN3CCN(c4cccc5ccccc45)CC3)ccc21` [Example D16, 4,4-Dimethyl-7-[4-(4-naphthalen-1-yl-piperazin-1-yl)-butoxy]-3,4-dihydro-1H-[1,8]naphthyridin-2-one] came in with an Emax at 1 µM at D2 receptor (Table 1) of 31%.
`Cc1cc2c(N3CCN(CCCCOc4ccc5c(n4)NC(=O)CC5)CC3)cccc2[nH]1` [Example A27′, 7-{4-[4-(2-Methyl-1H-indol-4-yl)-piperazin-1-yl]-butoxy}-3,4-dihydro-1H-[1,8]naphthyridin-2-one] returned an Emax at 1 µM at D2 receptor (Table 2) of 21%.
On to `O=C1CCc2ccc(OCCCCN3CCN(c4ccccc4-c4ccccc4)CC3)nc2N1` [Example A11, 7-[4-(4-Biphenyl-2-yl-piperazin-1-yl)-butoxy]-3,4-dihydro-1H-[1,8]naphthyridin-2-one], for which, on D2 receptor (Table 1), the Emax at 1 µM is 6%.
As for `O=C1CCc2ccc(OCCCCN3CCN(c4ccccc4)CC3)nc2N1` [Example A39, 7-[4-(4-phenyl-piperazin-1-yl)-butoxy]-3,4-dihydro-1H-[1,8]naphthyridin-2-one], on D2 receptor (Table 1), the Emax at 1 µM came to 56%.
As for `CC1(C)Cc2cccc(N3CCN(CCCCOc4ccc5ccc(=O)[nH]c5n4)CC3)c2O1` [Example B9′, 7-{4-[4-(2,2-Dimethyl-2,3-dihydro-benzofuran-7-yl)-piperazin-1-yl]-butoxy}-1H-[1,8]naphthyridin-2-one], the Emax at 1 µM on D2 receptor (Table 2) is 40%.
In turn, `Cc1c(Cl)cccc1N1CCN(CCCCOc2ccc3c(n2)NC(=O)CC3(C)C)CC1` [Example D21, 7-{4-[4-(3-Chloro-2-methyl-phenyl)-piperazin-1-yl]-butoxy}-4,4-dimethyl-3,4-dihydro-1H-[1,8]naphthyridin-2-one] displayed an Emax at 1 µM at D2 receptor (Table 1) of 24%.
`O=c1ccc2ccc(OCCCCN3CCN(c4cccc5c4CC(F)(F)C5)CC3)nc2[nH]1` [Example B46, 7-{4-[4-(2,2-Difluoro-indan-4-yl)-piperazin-1-yl]-butoxy}-1H-[1,8]naphthyridin-2-one]: the Emax at 1 µM at D2 receptor (Table 1) was determined as 29%.
The molecule `CC1(C)CC(=O)Nc2nc(OCCCCN3CCN(c4cccc5c4CCCC5)CC3)ccc21` [Example D18, 4,4-Dimethyl-7-{4-[4-(5,6,7,8-tetrahydro-naphthalen-1-yl)-piperazin-1-yl]-butoxy}-3,4-dihydro-1H-[1,8]naphthyridin-2-one] registered an Emax at 1 µM at D2 receptor (Table 1) of 37%.
On to `O=C1CCc2ccc(OCCCCN3CCN(c4cccc5ccoc45)CC3)nc2N1` [Example A23′, 7-[4-(4-Benzofuran-7-yl-piperazin-1-yl)-butoxy]-3,4-dihydro-1H-[1,8]naphthyridin-2-one], for which the Emax at 1 µM on D2 receptor (Table 2) was 39%.
Regarding `Cc1nc(OCCCCN2CCN(c3cccc4ccccc34)CC2)nc2[nH]c(=O)c(F)cc12` [Example H5, 6-Fluoro-4-methyl-2-[4-(4-naphthalen-1-yl-piperazin-1-yl)-butoxy]-8H-pyrido[2,3-d]pyrimidin-7-one], the Emax at 1 µM on D2 receptor (Table 1) is 34%.
At D2 receptor (Table 1), `CC(F)(F)c1ccccc1N1CCN(CCCCOc2ccc3ccc(=O)[nH]c3n2)CC1` [Example B17, 7-(4-{4-[2-(1,1-Difluoro-ethyl)-phenyl]-piperazin-1-yl}-butoxy)-1H-[1,8]naphthyridin-2-one] gave an Emax at 1 µM of 43%.
Molecule `O=C1CCc2ccc(OCCCCN3CCN(c4ccc(F)cc4Cl)CC3)nc2N1` [Example A9, 7-{4-[4-(2-Chloro-4-fluoro-phenyl)-piperazin-1-yl]-butoxy}-3,4-dihydro-1H-[1,8]naphthyridin-2-one] gave an Emax at 1 µM at D2 receptor (Table 1) of 9%.
Regarding `CC(C)Oc1ccc(Cl)cc1N1CCN(CCCCOc2ccc3c(n2)NC(=O)CC3)CC1` [Example A25, 7-{4-[4-(5-Chloro-2-isopropoxy-phenyl)-piperazin-1-yl]-butoxy}-3,4-dihydro-1H-[1,8]naphthyridin-2-one], the Emax at 1 µM on D2 receptor (Table 1) turned out to be 27%.
Consider `O=C1CCc2ccc(OCCCCN3CCN(c4cccc5c4OCC5)CC3)nc2N1` [Example A2′, 7-{4-[4-(2,3-Dihydro-benzofuran-7-yl)-piperazin-1-yl]-butoxy}-3,4-dihydro-1H-[1,8]naphthyridin-2-one], for which, at D2 receptor (Table 2), the Emax at 1 µM was 21%.
Consider `Cc1c(F)ccc(N2CCN(CCCCOc3ccc4ccc(=O)[nH]c4n3)CC2)c1Cl` [Example B8, 7-{4-[4-(2-Chloro-4-fluoro-3-methyl-phenyl)-piperazin-1-yl]-butoxy}-1H-[1,8]naphthyridin-2-one], for which the Emax at 1 µM on D2 receptor (Table 1) worked out at 17%.
Consider `COC(=O)c1c(OCCCCN2CCN(c3cccc4ccccc34)CC2)ncc2c1NC(=O)CC2` [Example I11, 7-[4-(4-Naphthalen-1-yl-piperazin-1-yl)-butoxy]-2-oxo-1,2,3,4-tetrahydro-[1,6]naphthyridine-8-carboxylic acid methyl ester], for which the Emax at 1 µM on D2 receptor (Table 1) turned out to be 19%.
With `COc1c(Cl)cccc1N1CCN(CCCCOc2ccc3c(n2)NC(=O)CC3)CC1` [Example A17, 7-{4-[4-(3-Chloro-2-methoxy-phenyl)-piperazin-1-yl]-butoxy}-3,4-dihydro-1H-[1,8]naphthyridin-2-one], the Emax at 1 µM at D2 receptor (Table 1) was determined as 15%.
On D2 receptor (Table 1), `O=C1NCc2ccc(OCCCCN3CCN(c4cccc5c4CCC5)CC3)nc2N1` [Example F3, 7-[4-(4-Indan-4-yl-piperazin-1-yl)-butoxy]-3,4-dihydro-1H-pyrido[2,3-d]pyrimidin-2-one] displayed an Emax at 1 µM of 15%.
On the same count and under the same terms, the value for `COc1ccc2cccc(N3CCN(CCCCOc4ccc5ccc(=O)[nH]c5n4)CC3)c2c1` [Example B60, 7-{4-[4-(7-Methoxy-naphthalen-1-yl)-piperazin-1-yl]-butoxy}-1H-[1,8]naphthyridin-2-one] was 28%; that for `COc1ccnc(N2CCN(CCCCOc3ccc4ccc(=O)[nH]c4n3)CC2)n1` [Example B31, 7-{4-[4-(4-Methoxy-pyrimidin-2-yl)-piperazin-1-yl]-butoxy}-1H-[1,8]naphthyridin-2-one] was 76%; that for `O=c1ccc2ccc(OCCCCN3CCN(c4cccc(C(F)(F)F)c4Cl)CC3)nc2[nH]1` [Example B2, 7-{4-[4-(2-Chloro-3-trifluoromethyl-phenyl)-piperazin-1-yl]-butoxy}-1H-[1,8]naphthyridin-2-one] was 22%.
